Data taken from ChEMBL document CHEMBL1147592, “Novel quinazoline-quinoline alkaloids with cytotoxic and DNA topoisomerase II inhibitory activities” (Bioorg Med Chem Lett, 2004).
Converted amounts (≈) assume the structure as drawn.

Columns and labels:
[1] = system: P388; test: Cytotoxic activity against mouse leukemia P-388 cells; type: functional, cell-based
[2] = biological target: DNA topoisomerase II (Homo sapiens, UniProt P11388+Q02880); test: Inhibitory activity against human DNA topoisomerase II; type: protein assay

| SMILES | IC50 [1] | IC50 [2] |
| --- | --- | --- |
| CC(=O)NC1c2cc3ccccc3nc2-c2nc3ccccc3c(=O)n21 (stereo not drawn) | 33 µg/mL (≈ 96.4 µM) | 25 µM |
| O=c1c2ccccc2nc2n1C(O)c1cc3ccccc3nc1-2 (stereo not drawn) | 5 µg/mL (≈ 16.6 µM) | 25 µM |
| Oc1nc(-c2cnc3ccccc3c2)nc2ccccc12 | 40 µg/mL (≈ 146 µM) | 25 µM |
| CC(C(C)N1CC(=O)NC(=O)C1)N1CC(=O)NC(=O)C1 (stereo not drawn) [ICRF-193] |  | 13.9 µM |
| COC1c2cc3ccccc3nc2-c2nc3ccccc3c(=O)n21 (stereo not drawn) | 9 µg/mL (≈ 28.5 µM) | 25 µM |
| O=c1c2ccccc2nc2n1Cc1cc3ccccc3nc1-2 [LUOTONIN A] | 1.8 µg/mL (≈ 6.31 µM) | 28.5 µM |
| O=C(c1cnc2ccccc2c1)c1nc(O)c2ccccc2n1 | 20 µg/mL (≈ 66.4 µM) | 25 µM |
